# Tests used:
# Type in all cases: cell-based
# [1] = test system: TK-10; test: NCI60 five-dose screen; conditions: Homo sapiens, TK-10
# [2] = test system: UO-31; test: NCI60 five-dose screen; conditions: Homo sapiens, UO-31
# [3] = test system: Non-small Cell Lung Cancer panel; test: NCI60 five-dose screen, panel mean; conditions: Homo sapiens, read-out: Mean GI50
# [4] = test system: Colon Cancer panel; test: NCI60 five-dose screen, panel mean; conditions: Homo sapiens, read-out: Mean GI50
# [5] = test system: SR; test: NCI60 five-dose screen; conditions: Homo sapiens
# [6] = test system: SNB-75; test: NCI60 one-dose screen; conditions: Homo sapiens, SNB-75, read-out: Growth percent
# [7] = test system: SF-268; test: NCI60 five-dose screen; conditions: Homo sapiens, SF-268
# [8] = test system: MDA-MB231ATCC; test: NCI60 five-dose screen; conditions: Homo sapiens, MDA-MB-231
# [9] = test system: HCT-116; test: NCI60 five-dose screen; conditions: Homo sapiens, HCT-116
# [10] = test system: NCI/ADR-RES; test: NCI60 five-dose screen; conditions: Homo sapiens
# [11] = test system: KM12; test: NCI60 one-dose screen; conditions: Homo sapiens, KM12, read-out: Growth percent
# [12] = test system: SF-539; test: NCI60 one-dose screen; conditions: Homo sapiens, SF-539, read-out: Growth percent
# [13] = test system: NCI-H322M; test: NCI60 five-dose screen; conditions: Homo sapiens
# [14] = test system: NCI-H522; test: NCI60 five-dose screen; conditions: Homo sapiens, NCI-H522
# [15] = test system: CCRF-CEM; test: NCI60 one-dose screen; conditions: Homo sapiens, read-out: Growth percent
# [16] = test system: K-562; test: NCI60 five-dose screen; conditions: Homo sapiens, K562
# [17] = test system: SW-620; test: NCI60 one-dose screen; conditions: Homo sapiens, SW-620, read-out: Growth percent
# [18] = test system: K-562; test: NCI60 one-dose screen; conditions: Homo sapiens, K562, read-out: Growth percent
# [19] = test system: U251; test: NCI60 five-dose screen; conditions: Homo sapiens, U-251
# [20] = test system: SK-OV-3; test: NCI60 one-dose screen; conditions: Homo sapiens, SK-OV-3, read-out: Growth percent
# [21] = test system: A549/ATCC; test: NCI60 one-dose screen; conditions: Homo sapiens, A549, read-out: Growth percent
# [22] = test system: Melanoma panel; test: NCI60 five-dose screen, panel mean; conditions: Homo sapiens, read-out: Mean GI50
# [23] = test system: NCI-H522; test: NCI60 one-dose screen; conditions: Homo sapiens, NCI-H522, read-out: Growth percent
# [24] = test system: SK-MEL-2; test: NCI60 five-dose screen; conditions: Homo sapiens, SK-MEL-2
# [25] = test system: OVCAR-4; test: NCI60 one-dose screen; conditions: Homo sapiens, OVCAR-4, read-out: Growth percent
# [26] = test system: M14; test: NCI60 five-dose screen; conditions: Homo sapiens, M14
# [27] = test system: MDA-MB-435; test: NCI60 five-dose screen; conditions: Homo sapiens, MDA-MB-435
# [28] = test system: Prostate Cancer panel; test: NCI60 five-dose screen, panel mean; conditions: Homo sapiens, read-out: Mean GI50
# [29] = test system: SNB-75; test: NCI60 five-dose screen; conditions: Homo sapiens, SNB-75
# [30] = test system: TK-10; test: NCI60 one-dose screen; conditions: Homo sapiens, TK-10, read-out: Growth percent
# [31] = test system: PC-3; test: NCI60 five-dose screen; conditions: Homo sapiens, PC-3
# [32] = test system: IGROV1; test: NCI60 five-dose screen; conditions: Homo sapiens, IGROV-1
# [33] = test system: HCC-2998; test: NCI60 one-dose screen; conditions: Homo sapiens, HCC 2998, read-out: Growth percent
# [34] = test system: UACC-257; test: NCI60 one-dose screen; conditions: Homo sapiens, UACC-257, read-out: Growth percent
# [35] = test system: SK-OV-3; test: NCI60 five-dose screen; conditions: Homo sapiens, SK-OV-3
# [36] = test system: SN12C; test: NCI60 five-dose screen; conditions: Homo sapiens
# [37] = test system: ACHN; test: NCI60 five-dose screen; conditions: Homo sapiens
# [38] = test system: SF-295; test: NCI60 five-dose screen; conditions: Homo sapiens, SF-295
compound,measurement,setting,value
CC[C@]12C=CCN3CC[C@@]4(c5ccc(OC)cc5N(C)[C@H]4[C@@](O)(C(=O)OC)[C@@H]1OC(=O)CCC[P+](c1ccccc1)(c1ccccc1)c1ccccc1OC)[C@@H]32 [9f],GI50,[1],1940 nM
same,GI50,[2],11 µM
same,GI50,[3],1050 nM
same,GI50,[4],1610 nM
same,GI50,[5],221 nM
same,activity at 10 µM,[6],-79.5%
same,GI50,[7],372 nM
same,GI50,[8],397 nM
same,GI50,[9],383 nM
same,GI50,[10],26.1 µM
same,activity at 10 µM,[11],-93.4%
same,activity at 10 µM,[12],-93.8%
same,GI50,[13],2230 nM
same,GI50,[14],339 nM
same,activity at 10 µM,[15],0.92%
same,GI50,[16],125 nM
same,activity at 10 µM,[17],-48.7%
same,activity at 10 µM,[18],-43.4%
same,GI50,[19],248 nM
same,activity at 10 µM,[20],-33.4%
same,activity at 10 µM,[21],20.1%
same,GI50,[22],490 nM
same,activity at 10 µM,[23],-70.4%
same,GI50,[24],322 nM
same,activity at 10 µM,[25],-11.1%
same,GI50,[26],1060 nM
same,GI50,[27],299 nM
same,GI50,[28],340 nM
same,GI50,[29],197 nM
same,activity at 10 µM,[30],-88.5%
same,GI50,[31],268 nM
same,GI50,[32],510 nM
same,activity at 10 µM,[33],-93.1%
same,activity at 10 µM,[34],-73%
same,GI50,[35],411 nM
same,GI50,[36],325 nM
same,GI50,[37],4.58 µM
same,GI50,[38],1830 nM

# Reference: paper PMC12028158, “Synthesis and In Vitro Evaluation of the Anticancer Effect of Novel Phosphonium Vindoline Derivatives” (International Journal of Molecular Sciences, 2025)
